Reference: US9481662B2, “Seriniquinones, melanoma-specific anticancer agents” (The Regents of the University of California, priority 2012, dated 2016)

Legend:
[1] = system: HCT-116 cells; test: Cytotoxicity analysis (MTT/MTS) in HCT-116 colon carcinoma cells; assay type: cell-based, human; conditions: Homo sapiens; HCT-116 cells; read-out: IC50
From the text: Fortunately, 1 was fluorescent with excitation maxima at 250 nm (ε=20,800 cm^−1M^−1), 289 nm (ε=24,000 cm^−1M^−1) and 342 nm (ε=6900 cm^−1M^−1) and a broad emission from 490-680 nm. Using confocal microscopy, red and green fluorescence from 1 appeared in HCT-116 cells within minutes of addition (FIG. 3A). […] Time course confocal imaging studies were then combined with conventional activity MTT assays^6 to provide a detailed correlation between cellular localization and cytostatic activity.
HCT-116 colon carcinoma cells were plated in 96-well plates at 2.5×10^4 cells/well. After 24 h, the cultures were treated with a single concentration seriniquinone (1) within the range of 0.02-20.0 μM, etoposide (positive control) in the range of 0.05-50 μM or 1% DMSO (negative control). The cells were incubated for either 24 h, 48 h or 72 h. At the end of the incubation period, cultures were added with 3-(4,5-dimethylthiazol-2-yl)-5-(3-carboxymethoxyphenyl)-2-(4-sulfophenyl)-2H-tetrazolium (MTS) for 3 h. Cell viability was quantified by the ability of living cells to reduce the yellow MTS dye to a purple formazan product. Time course experiments were also conducted in HCT-116 cells. Cells were exposed to 1 over short periods (1 h, 3 h, 6 h, and 9 h) followed by incubation in drug-free media to complete a total of 24 h incubation before addition of MTS.

[2] = system: DCD-1L; test: Covalent labeling of DCD-1L peptide (fluorescent band on SDS-PAGE); assay type: binding, human; conditions: 50 μM, PBS pH 7.2, 5% DMSO, 23° C., 24 h (FIG. 5E)
From the text: FIGS. 5A-5E: Seriniquinone (1) targets dermcidin (DCD). […] Sequence listing (FIG. 5B): […] (SEQ ID NO:3); […] (SEQ ID NO:4).
The reactivity between 1 and DCD was then examined. […] These studies now provided initial support for the formation of a unique trimeric covalent adduct, compound 15, between 1, DCD and targeted proteins such as GADPH.

[3] = target: T1, dermcidin (DCD) (Homo sapiens, UniProt P81605); test: Immunoprecipitation with IAF probe and LC-MS/MS target identification; assay type: binding; conditions: HCT-116 cell lysates, iodoacetamide treatment
T1 construct: endogenous in cells; host or cells: HCT-116 cell lysate
T1 sequence (P81605 20-110): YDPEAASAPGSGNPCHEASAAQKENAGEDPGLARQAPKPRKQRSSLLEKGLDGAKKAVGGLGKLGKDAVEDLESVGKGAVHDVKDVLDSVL
Experimental: Using established protocols,^13 HCT-116 cell lysates were treated for 8 h with probe 13 and immunoprecipitated with resins bearing a covalently-attached anti-IAF mAb.^14 Over multiple repetitions, a series of proteins ranging from 30-250 kDa were obtained in a manner dependent on the concentration probe 13 (FIG. 5A). […] Trypsin digestion coupled with LC-MS/MS analyses was then applied to identify the proteins in the more abundant bands. […] In addition to peptides from GADPH, peptides were also found in the 50 kDa band (b1, FIG. 5A) that corresponded to the 30 aa PIF core, 13 aa propeptide, and 47 aa DCD-1 peptide region of dermcidin (DCD) (FIG. 5B).
Interested if this was the case in this experimentation, the immunoprecipitated fractions were treated with 5 mM iodoacetamide prior to gel analysis. As indicated (Lane L1, FIG. 5C), a low molecular weight band corresponding to DCD appeared.
An 1 mg/mL stock of probe 14a/14b in DMSO solution was added to 1 mL of cell lysate containing ˜1 mg/mL in net protein to provide a net concentration of 3 μM 14a/14b or 30 μM 14a/14b. […]
Silver Stained bands were excised from the polyacrylamide gel and destained. […] General procedure was using in-gel trypsin digest and then the trypsin-digested peptides were analyzed by liquid chromatography LC-MS/MS with electrospray ionization. […]

[4] = system: HCT-116 cells; test: Confocal microscopy subcellular localization; assay type: cell-based, human; conditions: confocal imaging with counterstains
Experimental: Confocal studies were conducted on a LSM 710 inverted confocal microscope (Zeiss) with scanning module with 3 detection channels, Plan-Apochromat 63×/1.4 na objective, diode laser (405 nm, CW pulsed, 30 mW), Ar-laser (458 nm, 488 nm, 514 nm, 25 mW), HeNe-laser (543 nm, 1 mW) and HeNe-laser (633 nm, 5 mW). For all procedures, cells were seeded 24 h prior to treatment, to allow for adequate attachment to the well or flask bottom. Cells were plated in glass-bottom dishes (MatTek Corporation) for microscopic analyses at 1×10^5 cells/mL. Compounds were added to cells under 1 mL of media from […] such that the DMSO content remained under 0.1%. […]
Colocalization studies were conducted by treating cells (HCT-116 or MALME-3M) at a density of 1×10^5 cells/cm^2 in a 35 mm glass-bottom dish (MatTek Corporation). […] After 30 min, cells were washed PBS (4×1 mL) and immediately analyzed by confocal microscope. […] The localization of seriniquinone (1) was acquired by red fluorescence with emission at 550-631 nm, while the ER-tracker was acquired by blue florescence with emission at 406-450 nm. […] After 15 min, cells were washed PBS (4×1 mL) and immediately analyzed by confocal microscope. […] The localization of seriniquinone (1) was acquired by red fluorescence with emission at 550-631 nm, while the ER-tracker was acquired by blue florescence with emission at 415-530 nm.

CN(C)c1ccc2c(CC(=O)NCCCCCCNC(=O)CCc3ccc4c(=O)c5c(sc6c(=O)c7ccccc7c(=O)c65)c(=O)c4c3)cc(=O)oc2c1 [Probe 13, N-(6-(2-(7-(dimethylamino)-2-oxo-2H-chromen-4-yl)acetamido)hexyl)-3-(5,7,12,13-tetraoxo-5,7,12,13-tetrahydrodinaphtho[2,3-b:2′,3′-d]thiophen-3-yl)propanamide]
IC50 [1]: 250 ± 80 nM
fluorescent labeling of DCD-1L fragment [2]: fluorescent bands corresponding to DCD-1L
protein target identified by immunoprecipitation [3]: DCD was indeed a primary target
subcellular localization [4]: rapid uptake in the ER followed by transport into autophagosomes
